Measured values published in publication PMC5464773 (eLife, 2017).
Read-outs that look alike come from different tables or passages of the source.

Key:
[1] = biological target: T1, Bcl-2 (Homo sapiens, UniProt P10415); assay: Competition fluorescence polarization (anisotropy) with fluoresceinated BIM; type: binding; settings: competition FP source data
T1 construct: c-myc
Experimental: (§1) Plates were mixed at 23°C for 3 hr. Plates were read again at 24 to check equilibration. Experiments were done in at least triplicate.

[2] = biological target: T2, Bcl-xL (Homo sapiens, UniProt Q07817); assay: as above; type: binding
T2 construct: c-myc
Experimental: as §1

[3] = test system: BCR-ABL-expressing B-lineage acute lymphoblastic leukemia cells dependent on Bfl-1; assay: BH3 profiling, mitochondrial depolarization (JC-1) in permeabilized cells; type: cell-based; design: key to Bottom (best-fit value) / Top (best-fit value): % depolarization, normalized to DMSO (0) and FCCP (100) controls
Experimental: (§2) Cell line identities were confirmed by STR profiling.
(§3) Peptides were titrated by serial dilution in MEB buffer (150 mM Mannitol, 10 mM HEPES-KOH pH 7.5, 50 mM KCl, 0.02 mM EGTA, 0.02 mM EDTA, 0.1% BSA and 5 mM Succinate) containing 20 μg/mL oligomycin, 50 μg/mL digitonin, 2 μM JC-1 and 10 mM 2-mercaptoethanol in 384-well plates. Controls for no depolarization (1% DMSO) and complete depolarization with the mitochondrial oxidative phosphorylation uncoupler FCCP (20 μM) were included for data normalization. […] 15 μL of cell suspension was added to each well containing 15 μL of treatment solution. […] To produce percent depolarization, the area under the resultant curve was calculated and normalized to the assay controls. Peptide titration curves were fit to sigmoidal dose-response curves using Graphpad PRISM seven to obtain EC50 values.

[4] = test system: BCR-ABL-expressing B-lineage acute lymphoblastic leukemia cells dependent on Mcl-1; assay: as above; type: cell-based; settings: BH3 profiling fits Mcl-1, sigmoidal dose-response (variable slope)
Experimental: as §2, §3

[5] = test system: BCR-ABL-expressing B-lineage acute lymphoblastic leukemia cells dependent on Bfl-1
Experimental: (§4) As an additional test for on-pathway activity, we measured cytochrome c release in the same engineered cell lines in response to peptide treatment, using iBH3 profiling ([Ryan et al., 2016]).
(§5) The creation and characterization of the BCR-ABL-expressing B-lineage acute lymphoblastic leukemia suspension cell lines with engineered dependencies on human versions of anti-apoptotic genes is detailed in [Koss et al. (2016)]). Cells were grown in RPMI (Life Technologies, Carlsbad, CA) with 10% fetal bovine serum, 2 mM L-glutamine, 10 mL/L 100x Pen/Strep (Life Technologies # 15140122), 25 mM HEPES and 10 mL/L 100x NEAA (Life Technologies, 11140050). The adherent cell lines PC-3 (RRID: CVCL_0035) and SF295 (RRID: CVCL_1690) are from the NCI60 panel ([Lorenzi et al., 2009]) and were grown in RPMI (Life Technologies) with 10% fetal bovine serum, 2 mM L-glutamine and 10 mL/L 100x Pen/Strep (Life Technologies # 15140122 ). Cell line identities were confirmed by STR profiling. The Lookout Mycoplasma PCR detection kit (Sigma) was used to detect mycoplasma infection.
(§6) Cells were suspended in MEB buffer (150 mM mannitol, 50 mM KCl, 10 mM HEPES, 5 mM succinic acid, 20 μM EGTA, 20 μM EDTA, 0.1% BSA, final pH 7.4) at 0.5*10^6 cells/mL (adherent lines) or 2 *10^6 cells/mL (suspension lines). Cell suspension was added to a 384 non-binding well plate (10 μL/well) containing peptides at 2X final concentration in MEB with 20 μg/mL digitonin. Plates were incubated at 25°C for 1 hr. To terminate exposure, 10 μL of 4% formaldehyde in PBS was added to each well, plates were incubated for 10 min before addition of 10 μL N2 buffer (1.7M Tris, 1.25M glycine, pH 9.1) for 5 min. 10 μL of staining buffer (2% Tween20, 10% BSA, PBS) containing 10 μg/mL Hoechst 33342 and 1.25 μg/mL anti-cytochrome c Alexa647 conjugate (BioLegend clone 6H2.B4) was added to each well before sealing the plate and shaking overnight. The median fluorescence of the cytochrome c channel of Hoechst positive singlets was recorded by an IntelliCyt iQue Screener Plus. Cytochrome c release was determined by normalizing the median fluorescence intensity (MFI) data to positive control wells (Alamethicin) and negative control wells (DMSO) as follows: Cytochromecrelease=1−(MFIsample−MFIAlamethicin)/(MFIDMSO−MFIAlamethicin)

[6] = test system: BCR-ABL-expressing B-lineage acute lymphoblastic leukemia cells dependent on Mcl-1; settings: iBH3 fits Mcl-1, sigmoidal dose-response (variable slope)
Experimental: as §4, §5, §6

[7] = test system: BCR-ABL-expressing B-lineage acute lymphoblastic leukemia cells dependent on Bcl-2; assay: iBH3 profiling, cytochrome c release; type: cell-based; settings: iBH3 fits Bcl-2, sigmoidal dose-response (variable slope)
Experimental: as §4, §5, §6

[8] = test system: BCR-ABL-expressing B-lineage acute lymphoblastic leukemia cells dependent on Bcl-xL; assay: iBH3 profiling, cytochrome c release; type: cell-based; settings: iBH3 fits Bcl-xL, sigmoidal dose-response (variable slope)
Experimental: as §4, §5, §6

[9] = iBH3 fits Bfl-1, sigmoidal dose-response (variable slope), fit of 3 replicates
[10] = log of EC50, x axis Log [Peptide M]

T2 sequence (Q07817 whole entry): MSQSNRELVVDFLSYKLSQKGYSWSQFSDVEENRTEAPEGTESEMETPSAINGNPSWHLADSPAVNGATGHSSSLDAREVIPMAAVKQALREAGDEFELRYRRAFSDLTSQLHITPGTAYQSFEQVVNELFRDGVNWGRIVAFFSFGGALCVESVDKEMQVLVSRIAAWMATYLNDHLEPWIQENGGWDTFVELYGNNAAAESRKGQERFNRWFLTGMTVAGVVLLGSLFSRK
T1 sequence (P10415 whole entry): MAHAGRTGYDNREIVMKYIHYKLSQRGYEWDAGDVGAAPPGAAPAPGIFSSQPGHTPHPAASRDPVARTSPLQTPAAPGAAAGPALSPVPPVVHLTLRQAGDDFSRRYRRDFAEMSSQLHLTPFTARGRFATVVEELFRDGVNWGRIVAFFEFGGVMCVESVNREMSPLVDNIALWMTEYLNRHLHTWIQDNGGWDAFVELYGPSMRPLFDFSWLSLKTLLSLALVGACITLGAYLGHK

For Ac-QWVREIAAGLRRAADDVNAQVER-NH2 [FS2], the Ki ([1]; mean of three replicates, values above 5 μM are reported as > 5 μM in the figures, read-out: mean Ki (M) Bcl-2) was 2.41e-06 M, the “Ki (M) Bcl-2” value ([1]; replicate 1) was 2.55e-06 M and the “Ki (M) Bcl-2” value ([1]; replicate 2) was 2.86e-06 M. For the same substance, the “Ki (M) Bcl-2” value ([1]; replicate 3) was 1.82e-06 M, the Ki ([2]; competition FP source data, mean of three replicates, values above 5 μM are reported as > 5 μM in the figures, read-out: mean Ki (M) Bcl-xL) was 7.07e-06 M and the “Ki (M) Bcl-xL” value ([2]; competition FP source data, replicate 1) was 6.54e-06 M. For the same substance, the “Ki (M) Bcl-xL” value ([2]; competition FP source data, replicate 2) was 1e-05 M, the “Ki (M) Bcl-xL” value ([2]; competition FP source data, replicate 3) was 4.66e-06 M and the Ki ([2]; competition FP, 50 nM c-myc-tagged receptor + 25 nM fluoresceinated BIM, Tris pH 7.8, 23°C, 3 hr, mean ± SD of three replicates, read-out: Ki (nM) Bcl-xL) was > 5e-06 M. The “mitochondrial depolarization pattern in BH3 profiling” value ([3]; 100 nM peptide, four cell lines engineered to depend on Bcl-2, Bcl-xL, Mcl-1 or Bfl-1, JC-1) was “promoted depolarization only in Bfl-1 dependent cells”, the “HillSlope (best-fit value)” value ([3]; BH3 profiling fits Bfl-1, sigmoidal dose-response (variable slope)) was 0.7703 and the “Bottom (best-fit value)” value ([3]; BH3 profiling fits Bfl-1, sigmoidal dose-response (variable slope), constraint Bottom < 5) was 0.97. The “Top (best-fit value)” value ([3]; BH3 profiling fits Bfl-1, sigmoidal dose-response (variable slope), constraint Top > 78) was 84.17, the “LogEC50 (best-fit value)” value ([3]; BH3 profiling fits Bfl-1, sigmoidal dose-response (variable slope), x = Log [Peptide] M, 55-56 Y values analyzed) was -7.679 and the “HillSlope (best-fit value)” value [4] was 0.4032. For the same substance, the “Top (best-fit value)” value ([4]; constrained (Top < 100 or Top > 78)) was ~ 100, the “LogEC50 (best-fit value)” value ([4]; x = Log [Peptide] M, fits hit constraint or ambiguous) was -4.604 and the “LogEC50 (best-fit value)” value ([5]; iBH3 fits Bfl-1, log of EC50, x axis Log [Peptide M], sigmoidal dose-response (variable slope)) was ~ -9.301. The “HillSlope (best-fit value)” value ([5]; iBH3 fits Bfl-1, sigmoidal dose-response (variable slope)) was 0.6008, the “Bottom (best-fit value)” value [5, 9] was ~ -2.146 and the “Top (best-fit value)” value [5, 9] was 1.01. The “cytochrome c release pattern in iBH3” value ([5]; low concentrations, highly primed cells of known anti-apoptotic protein dependency) was “selectively induced cytochrome c release only in Bfl-1 dependent cell lines”, the “LogEC50 (best-fit value)” value [6, 10] was -4.058 and the “HillSlope (best-fit value)” value [6] was 1.725. The “Bottom (best-fit value)” value ([6]; fit of 3 replicates) was 0.1056, the “Top (best-fit value)” value ([6]; fit of 3 replicates) was 1.316 and the “LogEC50 (best-fit value)” value [7, 10] was -4.564. The “HillSlope (best-fit value)” value [7] was 1.006, the “Bottom (best-fit value)” value ([7]; fit of 3 replicates) was 0.134 and the “Top (best-fit value)” value ([7]; fit of 3 replicates) was 1.087. For the same substance, the “LogEC50 (best-fit value)” value [8, 10] was ~ -3.991, the “HillSlope (best-fit value)” value [8] was ~ 14.29 and the “Bottom (best-fit value)” value ([8]; fit of 3 replicates) was 0.1223. For the same substance, the “Top (best-fit value)” value ([8]; fit of 3 replicates) was ~ 0.6231.
